{"source": "BindingDB's records for doi:10.1021/acschembio.7b00369", "about": "(Baylor College of Medicine, 2017)", "assay_in_all_cases": "Microfluidic Mobility-Shift Assay", "conditions_in_all_cases": "pH 7", "key": {"[1]": {"target": "T1, cGMP-dependent protein kinase 2 [41-418,G232E] (Human, UniProt Q13237, G232E)", "T1 construct": "41-418", "T1 sequence (Q13237 41-418 G232E)": "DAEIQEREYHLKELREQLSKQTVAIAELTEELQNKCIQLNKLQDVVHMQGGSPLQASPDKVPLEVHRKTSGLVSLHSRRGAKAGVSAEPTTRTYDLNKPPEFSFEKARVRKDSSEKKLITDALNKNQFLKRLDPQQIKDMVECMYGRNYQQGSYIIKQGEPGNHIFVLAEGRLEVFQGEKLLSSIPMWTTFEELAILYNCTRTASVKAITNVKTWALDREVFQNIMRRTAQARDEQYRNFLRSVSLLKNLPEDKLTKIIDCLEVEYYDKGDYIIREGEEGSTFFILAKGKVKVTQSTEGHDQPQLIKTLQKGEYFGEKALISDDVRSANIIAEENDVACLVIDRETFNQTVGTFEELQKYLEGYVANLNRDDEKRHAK"}, "[2]": {"target": "T2, cGMP-dependent protein kinase 2 (Homo sapiens, UniProt Q13237)", "T2 sequence (Q13237 whole entry)": "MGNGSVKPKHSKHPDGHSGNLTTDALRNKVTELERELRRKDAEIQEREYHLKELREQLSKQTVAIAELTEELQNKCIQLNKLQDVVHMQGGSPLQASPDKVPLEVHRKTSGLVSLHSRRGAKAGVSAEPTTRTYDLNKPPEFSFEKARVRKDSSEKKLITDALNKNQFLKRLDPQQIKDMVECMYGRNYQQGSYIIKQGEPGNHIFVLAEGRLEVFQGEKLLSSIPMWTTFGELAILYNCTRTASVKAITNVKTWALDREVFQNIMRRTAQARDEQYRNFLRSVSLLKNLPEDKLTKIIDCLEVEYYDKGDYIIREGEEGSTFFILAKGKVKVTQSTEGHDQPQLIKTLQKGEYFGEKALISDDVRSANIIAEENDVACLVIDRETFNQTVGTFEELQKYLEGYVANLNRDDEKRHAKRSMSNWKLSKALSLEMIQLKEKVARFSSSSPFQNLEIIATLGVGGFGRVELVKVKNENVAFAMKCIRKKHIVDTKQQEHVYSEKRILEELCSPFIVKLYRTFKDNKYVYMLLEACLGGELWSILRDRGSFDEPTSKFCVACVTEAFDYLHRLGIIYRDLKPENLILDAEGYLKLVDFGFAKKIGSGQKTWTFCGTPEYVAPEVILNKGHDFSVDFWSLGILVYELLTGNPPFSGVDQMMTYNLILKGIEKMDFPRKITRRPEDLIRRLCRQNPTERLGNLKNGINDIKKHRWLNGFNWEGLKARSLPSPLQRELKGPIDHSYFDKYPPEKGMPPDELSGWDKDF"}, "[3]": {"target": "T3, cGMP-dependent protein kinase 2 [41-418] (Human, UniProt Q13237)", "T3 construct": "41-418", "T3 sequence (Q13237 whole entry)": "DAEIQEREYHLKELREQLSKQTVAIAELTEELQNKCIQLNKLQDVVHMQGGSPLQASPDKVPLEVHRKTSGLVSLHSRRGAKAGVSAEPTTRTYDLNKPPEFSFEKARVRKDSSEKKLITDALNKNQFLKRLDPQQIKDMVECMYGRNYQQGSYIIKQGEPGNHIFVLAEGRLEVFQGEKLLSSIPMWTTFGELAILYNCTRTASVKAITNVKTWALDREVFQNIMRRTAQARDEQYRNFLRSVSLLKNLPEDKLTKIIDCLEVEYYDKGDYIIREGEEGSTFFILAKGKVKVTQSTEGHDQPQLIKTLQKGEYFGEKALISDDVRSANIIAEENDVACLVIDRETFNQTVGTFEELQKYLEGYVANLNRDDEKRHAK"}, "[4]": {"target": "T4, cGMP-dependent protein kinase 2 [41-418,G356E] (Human, UniProt Q13237, G356E)", "T4 construct": "41-418", "T4 sequence (Q13237 41-418 G356E)": "as the sequence (Q13237 41-418 G232E) above, with E192G, G316E counted along it"}, "[5]": {"target": "T5, Isoform Beta of cGMP-dependent protein kinase 1 [1-351] (Human, UniProt Q13976)", "T5 construct": "1-351", "T5 sequence (Q13976 whole entry)": "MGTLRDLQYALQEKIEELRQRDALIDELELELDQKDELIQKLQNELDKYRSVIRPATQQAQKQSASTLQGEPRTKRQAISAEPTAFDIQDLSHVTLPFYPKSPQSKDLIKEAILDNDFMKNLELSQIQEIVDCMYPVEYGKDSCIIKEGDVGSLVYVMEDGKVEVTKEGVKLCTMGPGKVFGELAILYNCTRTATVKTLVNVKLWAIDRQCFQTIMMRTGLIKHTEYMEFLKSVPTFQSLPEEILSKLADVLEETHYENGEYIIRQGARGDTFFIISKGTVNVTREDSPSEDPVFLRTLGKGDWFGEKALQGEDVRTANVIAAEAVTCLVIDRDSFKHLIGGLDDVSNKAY"}, "[6]": {"target": "T6, Isoform Beta of cGMP-dependent protein kinase 1 [1-351,G182E] (Human, UniProt Q13976, G182E)", "T6 construct": "1-351", "T6 sequence (Q13976 as listed by the source G182E)": "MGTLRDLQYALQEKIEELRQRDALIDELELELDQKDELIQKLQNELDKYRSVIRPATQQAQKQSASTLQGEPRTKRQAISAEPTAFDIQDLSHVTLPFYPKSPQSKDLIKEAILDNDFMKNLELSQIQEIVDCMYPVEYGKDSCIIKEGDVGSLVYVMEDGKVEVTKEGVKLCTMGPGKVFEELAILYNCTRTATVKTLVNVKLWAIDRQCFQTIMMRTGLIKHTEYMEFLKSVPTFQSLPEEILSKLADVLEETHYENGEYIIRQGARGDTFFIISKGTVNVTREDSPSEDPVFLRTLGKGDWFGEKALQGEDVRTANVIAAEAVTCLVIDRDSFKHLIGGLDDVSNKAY"}, "[7]": {"target": "T7, Isoform Beta of cGMP-dependent protein kinase 1 [5-676,G306E] (Human, UniProt Q13976, G306E)", "T7 construct": "5-676", "T7 sequence (Q13976 as listed by the source G306E)": "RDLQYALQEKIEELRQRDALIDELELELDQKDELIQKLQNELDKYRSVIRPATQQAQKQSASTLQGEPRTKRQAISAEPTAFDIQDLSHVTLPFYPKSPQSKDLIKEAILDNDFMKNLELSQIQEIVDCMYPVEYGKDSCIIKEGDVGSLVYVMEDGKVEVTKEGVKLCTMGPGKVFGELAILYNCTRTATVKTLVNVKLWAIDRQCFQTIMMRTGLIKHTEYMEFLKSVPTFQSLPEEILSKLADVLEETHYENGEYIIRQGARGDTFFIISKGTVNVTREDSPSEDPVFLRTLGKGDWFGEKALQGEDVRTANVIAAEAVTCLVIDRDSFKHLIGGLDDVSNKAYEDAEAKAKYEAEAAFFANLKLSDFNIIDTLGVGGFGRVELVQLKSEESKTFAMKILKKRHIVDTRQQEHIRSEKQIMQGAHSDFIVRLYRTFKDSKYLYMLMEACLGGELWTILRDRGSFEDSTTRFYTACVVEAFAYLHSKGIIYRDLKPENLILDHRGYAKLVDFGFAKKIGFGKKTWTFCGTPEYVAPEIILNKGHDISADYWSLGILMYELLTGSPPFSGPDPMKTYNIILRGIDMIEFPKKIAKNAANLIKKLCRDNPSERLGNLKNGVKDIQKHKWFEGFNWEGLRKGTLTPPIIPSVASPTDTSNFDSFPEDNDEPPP"}, "[8]": {"target": "T8, Isoform Beta of cGMP-dependent protein kinase 1 [1-351,G306E] (Human, UniProt Q13976, G306E)", "T8 construct": "1-351", "T8 sequence (Q13976 as listed by the source G306E)": "as the sequence (Q13976 as listed by the source G182E) above, with E182G, G306E counted along it"}}, "note": "Values joined by “and” are separate entries in the source; they are usually repeats but may differ in a detail not shown here. Equal entries are not always repeated.", "data": [{"smiles": "Nc1nc(O)c2nc(Br)n([C@@H]3O[C@@H]4COP(=O)(O)O[C@H]4[C@H]3O)c2n1", "note": "[2-amino-8-bromo-9-[(2R,4aR,6R,7R,7aS)-2,7-dihydroxy-2-oxotetrahydro-2H,4H-2lambda~5~-furo[3,2-d][1,3,2]dioxaphosphinin-6-yl]-1,9-dihydro-6H-purin-6-one]", "values": [{"measurement": "EC50", "setting": "[1]", "value": 11, "unit": "nM"}, {"measurement": "EC50", "setting": "[2]", "value": 58, "unit": "nM"}, {"measurement": "EC50", "setting": "[3]", "value": 20, "unit": "nM"}, {"measurement": "EC50", "setting": "[4]", "value": 30, "unit": "nM"}, {"measurement": "EC50", "setting": "[5]", "value": 222, "unit": "nM"}, {"measurement": "EC50", "setting": "[6]", "value": 765, "unit": "nM"}, {"measurement": "EC50", "setting": "[7]", "value": 206, "unit": "nM"}, {"measurement": "EC50", "setting": "[8]", "value": "< 2", "unit": "nM"}]}, {"smiles": "Nc1nc(=O)c2nc(Sc3ccc(Cl)cc3)n([C@@H]3O[C@@H]4COP(=O)(O)O[C@H]4[C@H]3O)c2[nH]1", "note": "[8-pCP-cGMP]", "values": [{"measurement": "EC50", "setting": "[1]", "value": "184 nM and 116 nM"}, {"measurement": "EC50", "setting": "[5]", "value": "163 nM and 212 nM"}, {"measurement": "EC50", "setting": "[6]", "value": "328 nM and 206 nM"}, {"measurement": "EC50", "setting": "[7]", "value": "370 nM and 249 nM"}, {"measurement": "EC50", "setting": "[8]", "value": "4.2 nM and 7.7 nM"}]}, {"smiles": "O=c1c2ncn([C@@H]3O[C@@H]4COP(=O)(O)O[C@H]4[C@H]3O)c2[nH]c2nc(-c3ccccc3)cn12", "note": "[PET-cGMP]", "values": [{"measurement": "EC50", "setting": "[1]", "value": 1960, "unit": "nM"}, {"measurement": "EC50", "setting": "[2]", "value": 225, "unit": "nM"}, {"measurement": "EC50", "setting": "[3]", "value": 193, "unit": "nM"}, {"measurement": "EC50", "setting": "[4]", "value": 5.3, "unit": "nM"}, {"measurement": "EC50", "setting": "[5]", "value": 3.8, "unit": "nM"}, {"measurement": "EC50", "setting": "[6]", "value": 5.8, "unit": "nM"}, {"measurement": "EC50", "setting": "[7]", "value": 18, "unit": "nM"}, {"measurement": "EC50", "setting": "[8]", "value": "< 2", "unit": "nM"}]}]}
